Laboratory results published in US9393216B2, “Vaginal matrices: nanofibers for contraception and prevention of HIV infection” (priority 2012, dated 2016).
Where two headings read alike, the source gives them in different places.

Legend:
HIV-1 BaL [1] = assay: HIV-1 BaL infection inhibition assay in TZM-bl cells (luciferase); assay type: cell-based
Description: TZM-bl cells and HIV-1 BaL isolate are obtained. TZM-bl cells are a HeLa derived cell line that express CD4, CCR5 and CXCR4. Cells re plated in a black 96-well plate at a density of 5,000 cells/well (Corning, Corning, N.Y.) and maintained in Dulbecco's Modified Eagle Medium (DMEM) (Gibco Life Technologies) with 10% fetal bovine serum (Hyclone), 1% 100× penicillin/streptomycin (Invitrogen) and 1% 200 mM L-glutamine. […] Fibers were sterilized by UV irradiation for one hour per side prior to use. Treatments were added at a volume of 50 μL. […] Percent viability is calculated by normalizing to the average of media control wells (n=9). For composite fabrics, the drug concentration shown applies to both the amount of LNG and of TFV (1:1 ratio). […] Data represents triplicate wells with error bars indicating standard deviation.
Inhibition of infectious activity is quantified by measuring luminescence on a plate reader (Tecan). IC50 values of drug compounds re estimated using sigmoidal regression in Graphpad Prism, version 5.0.
TZM-bl cells and HIV-1 BaL isolate re obtained from the NIH AIDS Research and Reference Reagent Program, Division of AIDS, NIAID, NIH (http://www.aidsreagent.org/). TZM-bL cells, a derived HeLa cell line that expresses CD4, CCR5, and CXCR4, were added to black 96-well plates (Corning, Corning, N.Y.) with Dulbecco's Modified Eagle Medium (DMEM) (Gibco Life Technologies) with 10% fetal bovine serum (Hyclone), 1% 100× penicillin/streptomycin (Invitrogen), and 1% 200 mM L-glutamine (Invitrogen) with […] at a density of 5,000 cells/well. […] Fibers re sterilized by UV irradiation for 2 h (1 h per side). Treatments were added in […]. For the HIV-infectious inhibition assay, […] (240 TCID/well) are added to wells 1 h after drug treatment. […] Infectious activity is quantified by measuring luminescence on a plate reader (Tecan).
TZM-bl cells and HIV-1 BaL isolate re obtained from the NIH AIDS Research and Reference Reagent Program, Division of AIDS, NIAID, NIH (http://www.aidsreagent.org/). TZM-bL cells, a derived HeLa cell line that expresses CD4, CCR5, and CXCR4, are added to black 96-well plates (Corning, Corning, N.Y.) with Dulbecco's Modified Eagle Medium (DMEM) (Gibco Life Technologies) with 10% fetal bovine serum (Hyclone), 1% 100× penicillin/streptomycin (Invitrogen), and 1% 200 mM L-glutamine (Invitrogen) with 50 μL/well at a density of 5,000 cells/well. […] Treatments are diluted serially and randomly assigned to treatments A-E. A second operator, blinded to the identity of the treatments, added each in 50 μL volumes into duplicate wells (n=1 was used for PVP (D) and PEO Tween 20 (E) formulations only due to space limitations on the 96-well plate). 100 μL of HIV-BaL (240 TCID/well) was added to wells 1 h after drug treatment. […] Infectious activity was quantified by measuring luminescence on a plate reader (Tecan).

TZM-bl cells = assay: Cytotoxicity in TZM-bl cells (CellTiter Blue); assay type: cell-based; settings: for Cytotoxicity to TZM-bl cells: 48 h exposure to 24 h eluates of PVA fabrics, 20 wt.% theoretical loading
Description: TZM-bl cells and HIV-1 BaL isolate are obtained. TZM-bl cells are a HeLa derived cell line that express CD4, CCR5 and CXCR4. Cells re plated in a black 96-well plate at a density of 5,000 cells/well (Corning, Corning, N.Y.) and maintained in Dulbecco's Modified Eagle Medium (DMEM) (Gibco Life Technologies) with 10% fetal bovine serum (Hyclone), 1% 100× penicillin/streptomycin (Invitrogen) and 1% 200 mM L-glutamine. […] Fibers were sterilized by UV irradiation for one hour per side prior to use. Treatments were added at a volume of 50 μL. Cytotoxicity is analyzed using the CellTiter Blue assay (Promega) to assess TZM-bl cell viability after 48 h of exposure to drug eluates from fiber release in cDMEM (24 h release, triplicate wells for each sample). Percent viability is calculated by normalizing to the average of media control wells (n=9). […] Positive control (12.5% DMSO) results in 4.6% viability. Data represents triplicate wells with error bars indicating standard deviation.

[2] = Cumulative release of TFV from PVA fiber meshes at pH 4.3 and pH 7.4; assay type: physicochemical; settings: pH 4.3 and 7.4, small and large scale
Description: FIG. 26. Burst release of TFV within 5 minutes at pH 4.3 and 7.4 is similar for meshes electrospun on small scale and large scales. Graphs display cumulative release of TFV in pH 4.3 citrate buffer (a,c) or pH 7.4 PBS (b,d) for fibers spun on small scale versus large scale instruments for pH adjusted and unadjusted solutions.

HIV-1 BaL [3] = settings: free (unformulated) drug; as reported previously; read-out: IC50 of free TFV; cited from earlier work
[4] = In vitro release of TFV and LNG from PVA fabrics in 1:1 isopropanol:water; assay type: physicochemical
Description: Drug loading is analyzed by dissolving approximately 5 mg of fibers in 20 mL of a mixture of 1:1 isopropanol:water in a glass vial. Triplicate samples are allowed to dissolve overnight at 37° C. on a rotational shaker and concentration is quantified using a Shimadzu Prominence LC20AD UV-HPLC system. A Phenomenex Luna C18 column (5 μM, 250×4.6 mm) and LC Solutions software are used to analyze samples.
A method for dual analysis of TFV and LNG is developed using the following gradient method using mobile phase A (0.1% formic acid in water) and mobile phase B (acetonitrile). The run consisted of 0-5 minutes 72% mobile phase A, 5-10 minutes ramp to 15% mobile phase A, 10-20 minutes 15% mobile phase A, 20-25 minutes ramp to 72% mobile phase A, 25-30 minutes 72% mobile phase A. The total method time is 30 minutes, with an oven temperature of 30° C., a flow rate of 1 mL/min, and an injection volume of 20 μL. LNG is detected at 238 nm at a retention time of 18.5 minutes. TFV is detected at 259 nm at a retention time of 2.3 minutes.
In vitro release was analyzed in a 1:1 solution of isopropanol:water due to the limited solubility of LNG in water. Sink conditions were maintained throughout the study for both drugs in the release media. Approximately 5 mg of fibers were prepared in triplicate and an appropriate volume of release media was added to maintain sink conditions of 2.6 mg/mL LNG as has been reported. Samples were incubated at 37° C. on a rotational shaker, and 200 μL samples of release media was taken as indicated. Fresh media was added to replace sample volume at each timepoint.

human swim-out sperm = assay: Sperm motility assay; assay type: cell-based; settings: for Inhibition of sperm function: motility of purified (swim-out) human sperm
Description: (§1) Sperm is obtained from two donors for sperm motility experiments. A third donor is recruited for sperm viability assays with glycerol monolaurate. Swim out sperm are obtained as described previously. Briefly, one can place 0.5 mL aliquots of semen below 3 mL of Ham's F-10 media (Sigma-Aldrich) with 0.5% human serum albumin (Sigma-Aldrich) for 75 min in 5% CO2 and 37° C. The aspirate, enriched for motile sperm, was centrifuged at 300 RCF for five min and resuspended in fresh Ham's F-10 to a concentration of 20×10^6 sperm/mL. The effect of drug dilutions on sperm motility are performed both in whole semen and in swimout sperm by adding […] of sperm and drugs to a slide and observing sperm motility with phase contrast either at 200× and 37° C. (ECLIPSE Ti, Nikon), or by adding 200 […] and quantifying sperm motility with computer aided motility analysis for up to 7 min after the addition of drug. Multiple media only controls are run to ensure that any observed change in motility was minimally dependent upon time since ejaculation. Sperm viability was measured by adding 20 […] of Trypan blue (Sigma-Aldrich) and counting 100 live or dead sperm based on head staining after a 10 min incubation using brightfield microscopy.

[5] = system: human sperm in whole semen; assay: Sperm viability assay (Trypan blue); assay type: cell-based
Description: as §1

[6] = DPV release from PVP and EC fibers; assay type: physicochemical
HIV = settings: cited from earlier work
[7] = Drug stability in fibers stored at room temperature; assay type: physicochemical; settings: PLLA/PEO meshes, at least five months
Description: Plates were then digitized using a scanner. Drug loading and stability is measured using fibers stored at room temperature (19-22° C.) for at least five months. […] UV-HPLC is used to quantify amount of drug in samples as previously described. Encapsulation efficiency is calculated as the amount of drug in drug-loaded fibers relative to the amount of drug detected in dissolved blank fibers spiked at 1% (wt/wt) drug loading.

[8] = Human immunodeficiency virus 1, BAL, TZM-bl, read-out: Final ARV drug concentration at IC50, drugs released from EC fibers (sustained)
[9] = Human immunodeficiency virus 1, BAL, TZM-bl, read-out: Final ARV drug concentration at IC50, drugs released from PVA fibers (pericoital)
[10] = single-drug PVA fibers, calculated for assumed 500 mg of fabric

Cc1cc(C#N)cc(C)c1Oc1nc(Nc2ccc(C#N)cc2)nc(N)c1Br [ETR, etravirine] showed an IC50 (HIV-1 BaL [1]; [8]) of 2.7 nM and an IC50 (HIV-1 BaL [1]; [9]) of 0.7 nM.

With C[S+](C)[O-] [DMSO] the “Viability, positive control” value (TZM-bl cells) was 4.6%.

In the case of C[C@H](Cn1cnc2c(N)ncnc21)OCP(=O)(O)O [TFV, tenofovir], the “Time of burst release of TFV” value [2] is given as ≤ 5 min, the “Cytotoxicity to TZM-bl cells” value (TZM-bl cells) is given as “not” and the IC50 (HIV-1 BaL [3]) is given as 1800 nM. The “Cumulative mass of drug released after 15 minutes” value [4, 10] was ~40 mg, the “Cumulative mass of drug released after 60 minutes” value [4, 10] was ~60 mg and the “Time to 100% TFV release” value ([4]; single-drug or 1:1 TFV:LNG PVA fabrics, 20 wt.% theoretical loading) was ≤ 30 min.

For methyl-β-cyclodextrin [MBCD], the “Inhibition of sperm function” value (human swim-out sperm) was “ineffective”.

With maraviroc [MVC] the IC50 (HIV-1 BaL [1]; drugs released from EC fibers (sustained), read-out: Final ARV drug concentration at IC50) was 4.2 nM, the IC50 (HIV-1 BaL [1]; drugs released from PVA fibers (pericoital), read-out: Final ARV drug concentration at IC50) was 1.6 nM and the IC50 (HIV-1 BaL [1]; eluates released from PLLA/PEO fibers, read-out: IC50, drug eluted from fibers) was 2.3 nM. For the same molecule, the “Globally shared best fit IC50” value (HIV-1 BaL [1]; pure maraviroc and maraviroc released from PVP/PEO electrospun formulations) was 6.96 ng/mL, the IC50 (HIV-1 BaL [1]; pure maraviroc and maraviroc released from PVP/PEO electrospun formulations, read-out: Globally shared best fit IC50) was 13.5 nM and the IC50 (HIV-1 BaL [1]; unformulated, read-out: IC50, unformulated drug) was 0.9 nM.

For CCCCCCCCCCCC(=O)OCC(O)CO (centres unmarked) [GML, glycerol monolaurate], the “Concentrations that inhibited sperm motility (complete spermiostasis)” value (human swim-out sperm) was 0.05-0.5 % (wt/vol), the “EC50, reduction of sperm motility” value (human swim-out sperm; at 2 min) was 0.005 % wt/vol and the “Lowest concentration with reduction in motility” value (human swim-out sperm; no complete spermiostasis) was ≥ 0.00005 % (wt/vol). For the same molecule, the “Reduction of sperm viability” value ([5]; 5% (wt/vol)) was 33.1% and the “Reduction of sperm viability” value ([5]; concentration not given) was 19.6%.

For Cc1cc(C)c(Nc2ccnc(Nc3ccc(C#N)cc3)n2)c(C)c1 [DPV, dapivirine], the DPV release characteristics ([6]; from EC fibers) is given as “sustained release”, the DPV release characteristics ([6]; from PVP fibers) is given as “burst-release” and the “Duration of prevention of localized and disseminated infection posttreatment” value (HIV) is given as ≤ 6 days.

Molecule Cc1nnc(C(=O)NC(C)(C)c2nc(C(=O)NCc3ccc(F)cc3)c(O)c(=O)n2C)o1 [RAL, raltegravir] has an IC50 (HIV-1 BaL [1]; [8]) of 3.8 nM and an IC50 (HIV-1 BaL [1]; [9]) of 1.2 nM.

With C#C[C@]1(O)CC[C@H]2[C@@H]3CCC4=CC(=O)CC[C@@H]4[C@H]3CC[C@@]21CC [LNG, levonorgestrel] the “Cytotoxicity to TZM-bl cells” value (TZM-bl cells) was “induced by high concentrations”.

For ferrous D-gluconate [FeGluc], the “Inhibition of sperm function” value (human swim-out sperm) was “ineffective”.

For Cc1cn([C@H]2C[C@H](N=[N+]=[N-])[C@@H](CO)O2)c(=O)[nH]c1=O [AZT, 3′-azido-3′-deoxythymidine], the IC50 (HIV-1 BaL [1]; Human immunodeficiency virus 1, BAL, TZM-bl, read-out: IC50, drug eluted from fibers) was 84 nM, the IC50 (HIV-1 BaL [1]; Human immunodeficiency virus 1, BAL, TZM-bl, read-out: IC50, unformulated drug) was 120 nM and the “Toxicity to TZM-bL cells” value (TZM-bl cells; compared with media controls) was “nontoxic”. The “Initially-loaded drug detected in stored fiber meshes” value [7] was 0.95%.
